Here are results for nine molecules from PMC10057480, “Expanding the Library of 1,2,4-Oxadiazole Derivatives: Discovery of New Farnesoid X Receptor (FXR) Antagonists/Pregnane X Receptor (PXR) Agonists” (Molecules, 2023).

Common to all, as to format: cell-based
One data set concerns the target T1, FXR (Homo sapiens, UniProt Q96RI1).
T1 construct: expressed in transfected cells; host or cells: HepG2
T1 sequence (Q96RI1 1-486): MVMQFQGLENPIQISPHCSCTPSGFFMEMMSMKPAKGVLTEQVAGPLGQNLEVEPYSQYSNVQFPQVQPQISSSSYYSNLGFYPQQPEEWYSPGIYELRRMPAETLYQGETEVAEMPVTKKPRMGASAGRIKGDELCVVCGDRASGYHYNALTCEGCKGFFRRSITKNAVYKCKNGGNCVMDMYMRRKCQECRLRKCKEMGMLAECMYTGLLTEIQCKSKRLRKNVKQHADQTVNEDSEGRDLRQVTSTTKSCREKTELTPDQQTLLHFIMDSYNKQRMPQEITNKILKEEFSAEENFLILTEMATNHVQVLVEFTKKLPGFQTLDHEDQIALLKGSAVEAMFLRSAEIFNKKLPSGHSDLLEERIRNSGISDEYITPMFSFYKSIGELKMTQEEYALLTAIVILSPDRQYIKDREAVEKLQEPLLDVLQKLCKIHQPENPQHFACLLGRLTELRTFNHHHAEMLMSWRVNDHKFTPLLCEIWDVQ
Kind of data set: FXR luciferase reporter transactivation assay (antagonism) on HepG2 cells. The following applies: HepG2 transactivation; compounds at 50 μM; percent inhibition of transactivation set at 100%; mean ± SD, at least three experiments. The procedure: The antagonistic activity on FXR was investigated using HepG2 cells transfected with 100 ng of pSG5-FXR and pSG5-RXR, 200 ng of the reporter vector p(hsp27)-TK-LUC containing the FXR response element, and 100 ng of the pGL4.70 vector encoding the human Renilla gene used as a transfection control. […] In another experimental setting, HepG2 cells were transfected using 100 ng of pSG5-PXR, 100 ng of pSG5-RXR, and 100 ng of pGL4.70, along with the reporter vector pGL3(henance)PXRE. At 24 h post-transfection, cells were stimulated with rifaximin 10 μM (as a positive control) or compounds 2–11 (10 μM). The specificity of compounds 5 and 11 versus FXR and PXR was tested using HepG2 cells transiently transfected with 200 ng of the reporter vector p(UAS)5XTKLuc, 100 ng of a vector containing the ligand binding domain of LXRα or LXRβand 100 ng of pGL4.70, a vector encoding the human Renilla gene. At 24 h post-transfection, cells were stimulated for 18 h with GW3965 (5 μM), compounds 5 and 11 (10 μM), and the combination of GW3965 plus 5 or 11 (50 μM). Cellular lysate was assayed for luciferase and Renilla activities after 18 h using the Dual-Luciferase Reporter assay system (E1980, Promega, Madison, WI, USA). The activity of luciferase was measured using the Glomax 20/20 luminometer (Promega, Madison, WI, USA) and normalized with Renilla activities.
(In general: Reporter assays use an easily measured gene product as a stand-in for the process of interest.)

Another data set addresses T2, PXR (Homo sapiens, UniProt O75469).
T2 construct: expressed in transfected cells; host or cells: HepG2
T2 sequence (O75469 1-434): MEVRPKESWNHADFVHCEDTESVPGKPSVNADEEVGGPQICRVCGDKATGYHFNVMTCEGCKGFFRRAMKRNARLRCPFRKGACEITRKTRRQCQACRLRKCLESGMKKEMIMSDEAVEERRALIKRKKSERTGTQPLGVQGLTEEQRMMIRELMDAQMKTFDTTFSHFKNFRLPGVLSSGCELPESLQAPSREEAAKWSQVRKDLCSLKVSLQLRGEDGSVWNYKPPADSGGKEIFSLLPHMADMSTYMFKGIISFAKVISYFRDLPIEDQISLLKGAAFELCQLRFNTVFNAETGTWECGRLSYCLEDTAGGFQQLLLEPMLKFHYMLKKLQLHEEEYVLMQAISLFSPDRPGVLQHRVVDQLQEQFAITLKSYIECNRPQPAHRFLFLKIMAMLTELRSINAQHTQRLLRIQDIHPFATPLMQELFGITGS
T2 sequence (P19793 1-462 partner): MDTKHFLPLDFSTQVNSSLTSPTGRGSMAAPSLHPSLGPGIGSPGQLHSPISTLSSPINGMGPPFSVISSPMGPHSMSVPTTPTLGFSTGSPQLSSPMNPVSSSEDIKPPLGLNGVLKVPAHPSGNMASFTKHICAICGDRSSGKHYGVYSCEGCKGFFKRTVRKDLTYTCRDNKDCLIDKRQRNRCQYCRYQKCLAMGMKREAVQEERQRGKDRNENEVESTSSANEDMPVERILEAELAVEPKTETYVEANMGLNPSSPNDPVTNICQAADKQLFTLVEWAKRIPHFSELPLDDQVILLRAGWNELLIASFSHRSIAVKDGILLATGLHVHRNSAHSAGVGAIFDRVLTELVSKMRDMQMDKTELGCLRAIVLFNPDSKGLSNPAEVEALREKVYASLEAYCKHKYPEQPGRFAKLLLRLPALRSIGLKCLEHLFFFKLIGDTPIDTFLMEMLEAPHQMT
Kind of data set: PXR luciferase reporter transactivation assay (agonism) on HepG2 cells. To be noted: compound 10 μM, maximal transactivation compared to Rifaximin 10 μM, mean ± SD, at least three experiments. The procedure:
(§1) The antagonistic activity on FXR was investigated using HepG2 cells transfected with 100 ng of pSG5-FXR and pSG5-RXR, 200 ng of the reporter vector p(hsp27)-TK-LUC containing the FXR response element, and 100 ng of the pGL4.70 vector encoding the human Renilla gene used as a transfection control. Cells were stimulated with the agonist 6-ECDCA (10 µM) alone or in combination with compounds 2–11 after 24 h. In another experimental setting, HepG2 cells were transfected using 100 ng of pSG5-PXR, 100 ng of pSG5-RXR, and 100 ng of pGL4.70, along with the reporter vector pGL3(henance)PXRE. At 24 h post-transfection, cells were stimulated with rifaximin 10 μM (as a positive control) or compounds 2–11 (10 μM). The specificity of compounds 5 and 11 versus FXR and PXR was tested using HepG2 cells transiently transfected with 200 ng of the reporter vector p(UAS)5XTKLuc, 100 ng of a vector containing the ligand binding domain of LXRα or LXRβand 100 ng of pGL4.70, a vector encoding the human Renilla gene. At 24 h post-transfection, cells were stimulated for 18 h with GW3965 (5 μM), compounds 5 and 11 (10 μM), and the combination of GW3965 plus 5 or 11 (50 μM). Cellular lysate was assayed for luciferase and Renilla activities after 18 h using the Dual-Luciferase Reporter assay system (E1980, Promega, Madison, WI, USA). The activity of luciferase was measured using the Glomax 20/20 luminometer (Promega, Madison, WI, USA) and normalized with Renilla activities.

The test system of a further data set is HepG2 cells. Kind of data set: Toxicity on HepG2 cells seen in the FXR transactivation assay. The following applies: at 50 μM. The procedure: as §1
Data set [1] has as its system Human-CaCo2 cells stimulated with TNFα. Nature of the data set: qPCR of PXR and inflammatory cytokines in TNFα-stimulated CaCo2 cells. To be noted: TNFα 100 ng/mL plus compound 10 μM. Here is the method:
HepG2 and CaCo2 cell lines, obtained from ATCC, were routinely cultured in Eagle’s MEM and high-glucose DMEM, respectively, supplemented with 10% FBS, 1% glutamine, and penicillin/streptomycin. For in vitro experiments, HepG2 (2 × 106) cells were stimulated with 6-ECDCA at a concentration of 10 µM alone or in combination with compound 5 or 11, and CaCo2 cells were exposed to TNFα (100 ng/mL) alone or in combination with rifaximin, compound 5, or 11.
Total RNA was isolated from the HepG2 and CaCo2 cell lines using TRI reagent (Zymo Research) and Direct-zol™ RNA MicroPrep w/Zymo-Spin™ IIC Columns (Zymo Research, Irvine, CA, USA). After purification from genomic DNA using DNase I (Thermo Fisher Scientific, Waltham, MA, USA), 2 μg of RNA from each sample was reverse transcribed using Kit FastGene Scriptase Basic (Nippon Genetics, Mariaweilerstraße, Düren, Germany) in 20-μL of reaction volume, and 50 ng of cDNA was amplified in a 20-μL solution containing 200 nM of each primer and 10 μL of PowerUp™ SYBR™ Green Master Mix (Thermo Fisher Scientific, Waltham, MA, USA) using a Quantstudio 3 system (Applied Biosystems, Foster City, CA, USA). The relative mRNA expression was calculated according to the ΔCt method. The primer used were as follows (forward and reverse): hGapdh (for […]; rev […]), hBsep (for […]; rev […]), hOstα (for […]; rev […]), hNtcp (for […]; rev […]), hPxr (for GCAAGGGCTTTTTCAGGAG; rev GGGTCTTCCGGGTGATCT), hIl-8 (for […]; rev […]), hIl-1β (for […]; rev […]).
Background: Quantitative PCR measures a nucleic acid by following its amplification.

SMILES strings stand for the structures. Where “and” joins values, the source holds several entries; their conditions need not be identical. Equal values may be shown once.

For `CCC(C)N1CCC(c2nc(-c3ccc4ccccc4c3)no2)CC1` (stereo not shown) [Compound 9, 5-(1-(Sec-butyl)piperidin-4-yl)-3-(naphthalen-2-yl)-1,2,4-oxadiazole], the “FXR Antagonism Eff (%)” value on FXR is recorded as “Toxic”. On PXR, the “PXR Agonism Eff (%)” value is 3 ± 0.2%. For the same molecule, the “Toxicity on HepG2 cells” value in the data set with HepG2 cells is reported as “toxic”.

Regarding `CCN1CCC(c2nc(-c3ccc4ccccc4c3)no2)CC1` [Compound 2, 5-(1-Ethylpiperidin-4-yl)-3-(naphthalen-2-yl)-1,2,4-oxadiazole], the “FXR Antagonism Eff (%)” value at FXR was “Toxic”. Also, the “PXR Agonism Eff (%)” value on PXR amounted to 2 ± 0.3%. For the same molecule, the “Toxicity on HepG2 cells” value in the data set with HepG2 cells is on record as “toxic”.

As to `CCCCCCCN1CCC(c2nc(-c3ccc4ccccc4c3)no2)CC1` [Compound 7, 5-(1-Heptylpiperidin-4-yl)-3-(naphthalen-2-yl)-1,2,4-oxadiazole], the “FXR Antagonism Eff (%)” value on FXR is listed as “Toxic”. The “PXR Agonism Eff (%)” value at PXR was 28 ± 3%. Also, in the data set on HepG2 cells, the “Toxicity on HepG2 cells” value is reported as “toxic”.

With `CCCCN1CCC(c2nc(-c3ccc4ccccc4c3)no2)CC1` [Compound 4, 5-(1-Butylpiperidin-4-yl)-3-(naphthalen-2-yl)-1,2,4-oxadiazole], the “FXR Antagonism Eff (%)” value on FXR was determined as 38 ± 5%. In addition, the “PXR Agonism Eff (%)” value at PXR is 68% and 68 ± 8%.

Take `CCCN1CCC(c2nc(-c3ccc4ccccc4c3)no2)CC1` [Compound 3, 3-(Naphthalen-2-yl)-5-(1-propylpiperidin-4-yl)-1,2,4-oxadiazole]: the “FXR Antagonism Eff (%)” value on FXR was “Toxic”. In addition, the “PXR Agonism Eff (%)” value on PXR came to 15 ± 0.5%. Further, the “Toxicity on HepG2 cells” value in the data set on HepG2 cells is given as “toxic”.

Turning to `CCCCCCN1CCC(c2nc(-c3ccc4ccccc4c3)no2)CC1` [Compound 6, 5-(1-Hexylpiperidin-4-yl)-3-(naphthalen-2-yl)-1,2,4-oxadiazole], the “PXR Agonism Eff (%)” value at PXR is 23 ± 0.7%.

As for `CC(C)N1CCC(c2nc(-c3ccc4ccccc4c3)no2)CC1` [Compound 8, 5-(1-Isopropylpiperidin-4-yl)-3-(naphthalen-2-yl)-1,2,4-oxadiazole], at PXR, the “PXR Agonism Eff (%)” value is 50% and 50 ± 7%.

As for `OCc1cccc(CN2CCC(c3nc(-c4ccc5ccccc5c4)no3)CC2)c1` [Compound 10, 5-[1-(3-(Hydroxymethyl)benzyl)piperidin-4-yl]-3-(naphthalen-2-yl)-1,2,4-oxadiazole], the “FXR Antagonism Eff (%)” value at FXR was 66% and 66 ± 13%. Further, the “PXR Agonism Eff (%)” value at PXR worked out at 20 ± 3%.

In the case of `CO[C@H]1/C=C/O[C@@]2(C)Oc3c(C)c(O)c4c(O)c(c5c(nc6cc(C)ccn65)c4c3C2=O)NC(=O)/C(C)=C\C=C\[C@H](C)[C@H](O)[C@@H](C)[C@@H](O)[C@@H](C)[C@H](OC(C)=O)[C@@H]1C` [rifaximin, reference compound], the “Effect on proinflammatory factors caused by TNFα stimulation” value in data set [1] is “reduced changes in the production of proinflammatory factors”.
